Results: ChEMBL document CHEMBL1667833, “Potent radiosensitizing agents: 5-methylselenyl- and 5-phenylselenyl-methyl-2'-deoxyuridine” (Bioorg Med Chem Lett, 2011)

How the values were obtained:
[1] = tested on: NCI-H460; assay: Cytotoxicity against human H460 cells assessed as cell viability after 72 hrs by calorimetric assay; format: functional, cell-based; conditions: NCI-H460, 72 h
[2] = tested on: NCI-H460; assay: Potentiation of gamma-irradiation-induced cytotoxicity against human H460 cells assessed as dose enhancement ratio at 50 uM administered 24 hrs before 2-8 Gy irradiation measured after 12 days; format: functional
[3] = tested on: NCI-H460; assay: Potentiation of gamma-irradiation-induced cytotoxicity against human H460 cells assessed as dose enhancement ratio at 300 uM administered 24 hrs before 2-8 Gy irradiation measured after 12 days; format: functional

Row | SMILES | IC50 [1] [µM] | Ratio [2] | Ratio [3]
1 | C[Se]Cc1cn([C@H]2C[C@H](O)[C@@H](CO)O2)c(=O)[nH]c1=O | 100 | 1.2 | 
2 | O=c1[nH]c(=O)n([C@H]2C[C@H](O)[C@@H](CO)O2)cc1C[Se]c1ccccc1 | 500 |  | 1.12
